Source: ChEMBL document CHEMBL1131859, “Conformationally restricted paclitaxel analogues: macrocyclic mimics of the "hydrophobic collapse" conformation” (1999)
Active and inactive are the calls of the source. The rule behind the calls is not given here.

Columns and labels:
[1] = Tested for activity using microtubule assembly assay expressed as the ED50 to that of ED50 of paclitaxel.; assay type: functional
B16 [2] = assay: Tested for cytotoxicity against B16 melanoma cells expressed as the ED50 to that of ED50 of paclitaxel.; assay type: functional, Mus musculus
[3] = Inhibitory activity against microtubule assembly stimulated by paclitaxel (1 uM) at a concentration of 20 uM of the compound; No inhibition; assay type: functional
B16 [4] = assay: Tested for cytotoxicity against B16 melanoma cells expressed as the ED50 to that of ED50 of paclitaxel; In active; assay type: functional, cell-based; conditions: Mus musculus
[5] = Tested for activity using microtubule assembly assay expressed as the ED50 to that of ED50 of paclitaxel; In active; assay type: functional

CC(=O)O[C@H]1C(=O)[C@@]2(C)[C@H]([C@H](OC(=O)c3ccccc3)[C@]3(O)CC(OC(=O)[C@H](O[Si](C)(C)C(C)(C)C)[C@@H](NC(=O)c4ccccc4)c4cccc(I)c4)C(C)=C1C3(C)C)[C@]1(OC(C)=O)CO[C@@H]1C[C@@H]2O (stereo not given in full)
Ratio [1]: 4.6 | Ratio (B16 [2]): 27

CC(=O)O[C@H]1C(=O)[C@@]2(C)[C@H]([C@@H]3OC(=O)c4cccc(c4)/C=C\c4ccccc4[C@H](NC(=O)c4ccccc4)[C@@H](O)C(=O)OC4C[C@]3(O)C(C)(C)C1=C4C)[C@]1(OC(C)=O)CO[C@@H]1C[C@@H]2O
Ratio [3]: inactive

CC(=O)O[C@H]1C(=O)[C@@]2(C)[C@H]([C@H](OC(=O)c3ccccc3)[C@]3(O)CC(OC(=O)/C=C(\NC(=O)c4ccccc4)c4cccc(I)c4)C(C)=C1C3(C)C)[C@]1(OC(C)=O)CO[C@@H]1C[C@@H]2O (stereo not given in full)
Ratio (B16 [4]): inactive | Ratio [5]: inactive
